Reference: EP0838225A2, “Aqueous local anesthetic solution” (Hiji, Yasutake, priority 1996, dated 1998)

What was measured:
[1] = Turbidity and clearness of local anesthetic solutions from absorbance at 620 nm (Experimental Example 1); type: physicochemical; conditions: for OD (620 nm): absorbance at wavelength of 620 nm, CD added at equimolar concentration, pH as in label; for clearness (%) / turbidity (%): calculated from absorbance at 620 nm
Protocol: The turbidity and clearness of each inclusion compound solution were calculated from the absorbances thus obtained. […] In the same manner as above, OD (620 nm) was determined with respect to the obtained inclusion compound solution of each local anesthetic in cyclodextrin or a derivative thereof, and solutions of each local anesthetic. The turbidity and clearness of each inclusion compound solution were calculated from the absorbances thus obtained.

[2] = Absorbance at 620 nm and pH of solutions over time after stirring (Experimental Example 2); type: physicochemical; conditions: N=4; for pH: average; for absorbance at 620 nm: mean±S.E.
Protocol: The absorbance at wavelength 620 nm [OD(620 nm)] and pH of 0.4% dibucaine solution were determined using UV-visible recording spectrophotometer (UV-2100, Shimadzu Corporation). The solution was stirred, and OD (620 nm) and pH were determined at 5 min, 24 hr, 48 hr and 72 hr later.
OD (620 nm) and pH of the inclusion compound solution were determined in the same manner as above. The solution was stirred, and OD (620 nm) and pH were determined.
In the same manner as above, OD (620 nm) and pH of 1.0% tetracaine solution and an inclusion compound solution prepared by adding hydroxypropyl-β-cyclodextrin having an equimolar concentration to 1.0% tetracaine solution were determined. The solutions were stirred, and OD (620 nm) and pH were determined.
In the same manner as above, OD (620 nm) and pH of 0.5% bupivacaine solution and an inclusion compound solution prepared by adding α-cyclodextrin having an equimolar concentration to 0.5% bupivacaine solution were determined. The solutions were stirred, and OD (620 nm) and pH were determined.
The solutions were stirred, and OD (620 nm) and pH were determined.

[3] = tested on: abdominal giant nerve bundle of crayfish; test: Anesthetic concentration versus action potential disappearance and recovery time (Experimental Example 7); type: cell-based, crayfish (Procambarus clarkii)
Description: A local anesthetic effect is known to be stronger in alkaline range where pH value is greater.
In addition, the relationship between dibucaine concentration and neuroaction potential recovery time was examined at pH 7.4.

in vivo = conditions: mouse, sc, 40 mg/kg
Protocol: (§1) While local anesthetics are known to show inhibitory action on the central nerve cells at high concentrations, they show stimulating action at low concentrations. […] That is, 0.5 %dibucaine dissolved in physiological saline was subcutaneously injected into the back of 11 mice by 0.3 ml (40 mg/kg body weight), which were compared with 11 mice that underwent subcutaneous injection of a solution containing 0.5% dibucaine and α-cyclodextrin having an equimolar concentration, by 0.3 ml (40 mg/kg body weight).

mice = test: in vivo; conditions: mouse, sc, 40 mg/kg
Protocol: as §1

Structure (SMILES)	OD (620 nm) [1]	clearness (%) [1] [%]	turbidity (%) [1] [%]	pH ([2]; 5 min later)	absorbance at 620 nm ([2]; 5 min later)	pH ([2]; 24 hr later)	absorbance at 620 nm ([2]; 24 hr later)	pH ([2]; 48 hr later)	absorbance at 620 nm ([2]; 48 hr later)	pH ([2]; initial)	absorbance at 620 nm ([2]; initial)	pH ([2]; 72 hr later)	absorbance at 620 nm ([2]; 72 hr later)	dibucaine concentration at which action potential disappeared and recovered ([3]; pH 7.4)	mortality (in vivo) [%]	time to death from the injection (mice)	action potential disappearance time (expression of anesthetic action) ([3]; 0.4% lidocaine, pH 7.5) [min]	action potential disappearance time (expression of anesthetic action) ([3]; 2% lidocaine, pH 6.5) [min]
CCCCN1CCCCC1C(=O)Nc1c(C)cccc1C (stereo not shown) [bupivacaine]	2.108	0	100	7.20	0.087±0.015	6.89	0.659±0.084	6.77	0.247±0.061	5.44	0.000	–	–	–	–	–	–	–
CCCCOc1cc(C(=O)NCCN(CC)CC)c2ccccc2n1 [dibucaine]	2.015	0	100	6.85	1.528±0.087	6.76	1.456±0.079	6.73	1.385±0.042	6.19	0.000	6.75	1.412±0.054	0.008%-0.05%	91	about 20 min	–	–
CCCCNc1ccc(C(=O)OCCN(C)C)cc1 [tetracaine]	2.732	0	100	7.12	0.517±0.024	7.04	0.411±0.024	7.05	0.386±0.015	5.49	0.000	7.05	0.301±0.025	–	–	–	–	–
CCN(CC)CC(=O)Nc1c(C)cccc1C [lidocaine]	–	–	–	7.09	1.045±0.242	7.05	0.717±0.152	7.10	0.382±0.044	4.59	0.006	7.12	0.595±0.086	–	–	–	2	80
